Assays:
Format in all cases: in vivo
[1] = system: Diabrotica balteata (Corn Root Worm); assay: Activity against Diabrotica balteata (corn root worm), maize sprouts sprayed; details: 96 h, application rate 200 ppm, L2 larvae, 4 days after infestation, read-out: effect in at least one of the two categories (mortality or growth inhibition)
Description: Example B1: Activity Against Diabrotica balteata (Corn Root Worm)
Maize sprouts placed onto an agar layer in 24-well microtiter plates were treated with aqueous test solutions prepared from 10,000 ppm DMSO stock solutions by spraying. After drying, the plates were infested with L2 larvae (6 to 10 per well). The samples were assessed for mortality and growth inhibition in comparison to untreated samples 4 days after infestation.

[2] = system: Euschistus heros (Neotropical Brown Stink Bug); assay: Activity against Euschistus heros (neotropical brown stink bug), soybean leaves sprayed; details: 120 h, application rate 200 ppm, N2 nymphs, 5 days after infestation, read-out: effect in at least one of the two categories (mortality or growth inhibition)
Description: Example B2: Activity Against Euschistus heros (Neotropical Brown Stink Bug)
Soybean leaves on agar in 24-well microtiter plates were sprayed with aqueous test solutions prepared from 10,000 ppm DMSO stock solutions. After drying the leaves were infested with N2 nymphs. The samples were assessed for mortality and growth inhibition in comparison to untreated samples 5 days after infestation.

[3] = system: Plutella xylostella (Diamond Back Moth); assay: Activity against Plutella xylostella (diamond back moth), artificial diet; details: 192 h, application rate 200 ppm, eggs, 8 days after infestation, read-out: effect in at least one of the two categories (mortality or growth inhibition)
Description: Example B3: Activity Against Plutella xylostella (Diamond Back Moth)
24-well microtiter plates with artificial diet were treated with aqueous test solutions prepared from 10,000 ppm DMSO stock solutions by pipetting. After drying, Plutella eggs were pipetted through a plastic stencil onto a gel blotting paper and the plate was closed with it. The samples were assessed for mortality and growth inhibition in comparison to untreated samples 8 days after infestation.

[4] = system: Spodoptera littoralis (Egyptian Cotton Leaf Worm); assay: Activity against Spodoptera littoralis (Egyptian cotton leaf worm), cotton leaf discs; details: foliar, 72 h, application rate 200 ppm, L1 larvae, 3 days after infestation, read-out: control (mortality, anti-feedant effect or growth inhibition)
Description: Example B5: Activity Against Spodoptera littoralis (Egyptian Cotton Leaf Worm)
Cotton leaf discs were placed onto agar in 24-well microtiter plates and sprayed with aqueous test solutions prepared from 10,000 ppm DMSO stock solutions. After drying the leaf discs were infested with five L1 larvae. The samples were assessed for mortality, anti-feeding effect, and growth inhibition in comparison to untreated samples 3 days after infestation. Control of Spodoptera littoralis by a test sample is given when at least one of the categories mortality, anti-feedant effect, and growth inhibition is higher than the untreated sample.

[5] = system: Myzus persicae (Green Peach Aphid); assay: Activity against Myzus persicae (green peach aphid), feeding/contact activity; details: 144 h, application rate 200 ppm, feeding/contact, mixed ages, 6 days after infestation, read-out: mortality
Description: Example B4: Activity Against Myzus persicae (Green Peach Aphid) Feeding/Contact Activity
Sunflower leaf discs were placed onto agar in a 24-well microtiter plate and sprayed with aqueous test solutions prepared from 10,000 ppm DMSO stock solutions. After drying, the leaf discs were infested with an aphid population of mixed ages. The samples were assessed for mortality 6 days after infestation.

CCS(=O)(=O)c1cc(C2(C#N)CC2)cnc1-c1ncc2c(OCC(F)(F)C(F)(F)F)cccn12 [Compound P35, 1-[5-ethylsulfonyl-6-[8-(2,2,3,3,3-penta-fluoropropoxy)imidazo [1,5-a]pyridin-3-yl]-3-pyridyl]cyclopropane-carbonitrile]
≥ 80%: percent effect (mortality or growth inhibition) at 200 ppm [1] | percent effect (mortality or growth inhibition) at 200 ppm [2] | percent effect (mortality or growth inhibition) at 200 ppm [3] | percent control (mortality, anti-feedant effect or growth inhibition) at 200 ppm [4]

CCSc1cc(OC(C)(C)C#N)cnc1-c1ncc2c(OCC(F)(F)C(F)(F)F)nccn12 [Compound P50, 2-[[5-ethylsulfanyl-6-[8-(2,2,3,3,3-penta-fluoropropoxy)imidazo [1,5-a]pyrazin-3-yl]-3-pyridyl]oxy]-2-methyl-propanenitrile]
≥ 80%: percent effect (mortality or growth inhibition) at 200 ppm [1] | percent effect (mortality or growth inhibition) at 200 ppm [2] | percent effect (mortality or growth inhibition) at 200 ppm [3] | percent control (mortality, anti-feedant effect or growth inhibition) at 200 ppm [4]

CCS(=O)(=O)c1cc(Oc2ccccn2)cnc1-c1ncc2c(OCC(F)(F)C(F)(F)F)nccn12 [Compound P19, 3-[3-ethylsulfonyl-5-(2-pyridyloxy)-2-pyridyl]-8-(2,2,3,3,3-penta-fluoropropoxy)imidazo [1,5-a]pyrazine]
≥ 80%: percent effect (mortality or growth inhibition) at 200 ppm [1] | percent effect (mortality or growth inhibition) at 200 ppm [2] | percent effect (mortality or growth inhibition) at 200 ppm [3] | mortality at 200 ppm [5] | percent control (mortality, anti-feedant effect or growth inhibition) at 200 ppm [4]

CCS(=O)(=O)c1ccc(NC)nc1-c1ncc2c(OCC(F)(F)C(F)(F)F)nccn12 [Compound P10, 5-ethylsulfonyl-N-methyl-6-[8-(2,2,3,3,3-penta-fluoropropoxy)imidazo [1,5-a]pyrazin-3-yl]pyri-din-2-amine]
≥ 80%: percent effect (mortality or growth inhibition) at 200 ppm [1] | percent effect (mortality or growth inhibition) at 200 ppm [2] | percent effect (mortality or growth inhibition) at 200 ppm [3] | mortality at 200 ppm [5] | percent control (mortality, anti-feedant effect or growth inhibition) at 200 ppm [4]

CCS(=O)(=O)c1cc(N=S(C)(C)=O)cnc1-c1ncc2c(OCC(F)(F)C(F)(F)F)cccn12 [Compound P45, [5-ethylsulfonyl-6-[8-(2,2,3,3,3-penta-fluoropropoxy)imidazo [1,5-a]pyridin-3-yl]-3-pyridyl]imino-dimethyl-oxo-λ^6-sulfane]
≥ 80%: percent effect (mortality or growth inhibition) at 200 ppm [2] | percent effect (mortality or growth inhibition) at 200 ppm [3] | mortality at 200 ppm [5]

CCS(=O)(=O)c1cc(OC(C)(C)C#N)cnc1-c1ncc2c(OCC(F)(F)C(F)(F)F)cccn12 [Compound P47, 2-[[5-ethylsulfonyl-6-[8-(2,2,3,3,3-penta-fluoropropoxy)imidazo [1,5-a]pyridin-3-yl]-3-pyridyl]oxy]-2-methyl-propanenitrile]
≥ 80%: percent effect (mortality or growth inhibition) at 200 ppm [1] | percent effect (mortality or growth inhibition) at 200 ppm [2] | percent effect (mortality or growth inhibition) at 200 ppm [3] | mortality at 200 ppm [5]

CCS(=O)(=O)c1cc(Oc2ccccn2)cnc1-c1ncc2c(OCC(F)(F)C(F)(F)F)cccn12 [Compound P36, 3-[3-ethylsulfonyl-5-(2-pyridyloxy)-2-pyridyl]-8-(2,2,3,3,3-penta-fluoropropoxy)imidazo [1,5-a]pyridine]
≥ 80%: percent effect (mortality or growth inhibition) at 200 ppm [1] | percent effect (mortality or growth inhibition) at 200 ppm [2] | percent effect (mortality or growth inhibition) at 200 ppm [3] | mortality at 200 ppm [5]

CCS(=O)(=O)c1cc(N(C)C(C)=O)cnc1-c1ncc2c(OCC(F)(F)C(F)(F)F)cccn12 [Compound P39, N-[5-ethylsulfonyl-6-[8-(2,2,3,3,3-penta-fluoropropoxy)imidazo [1,5-a]pyridin-3-yl]-3-pyridyl]-N-methyl-acetamide]
≥ 80%: percent effect (mortality or growth inhibition) at 200 ppm [2] | percent effect (mortality or growth inhibition) at 200 ppm [3] | mortality at 200 ppm [5]
